PubChem BioAssay AID242 (DTP/NCI, 2004)
Values joined by “and” are separate entries in the source; they are usually repeats but may differ in a detail not shown here. Equal entries are not always repeated. Inconclusive results and toxic doses are left out. The calls were made as follows: active = survival T/C of 150% or more; inactive = T/C below 125% in these data.

System: BDF1 mice, Lymphoma 8 ip, survival T/C
Experiment: NCI In Vivo Anticancer Drug Screen. Data for tumor model Lymphoma 8 (intraperitoneal) in B6D2F1 (BDF1) mice
Conditions: higher = longer survival
Method: The antitumor activity of compounds was measured in mice bearing transplantable tumors. Survival or tumor size were measured and the results are expressed as the measurement made in the treated group (T) divided by the measurement made in the vehicle treated control group (C). The tumor model used in this assay is Lymphoma 8 (intraperitoneal) in B6D2F1 (BDF1) mice

[1] = endpoint: survival time, mean or median, dose: 62.5 mg/kg/injection, schedule: Q01DX010 (ip), vehicle: saline
[2] = endpoint: survival time, mean or median, dose: 125.0 mg/kg/injection, schedule: Q01DX010 (ip), vehicle: saline

Measured: T/C

Cc1c(O)ccc(=O)n1O
inactive: endpoint: survival time, mean or median, dose: 49.0 mg/kg/injection, schedule: Q01DX015 (ip), vehicle: other 100 % of control | endpoint: survival time, mean or median, dose: 73.0 mg/kg/injection, schedule: Q01DX015 (ip), vehicle: other 97 % of control | endpoint: survival time, mean or median, dose: 110.0 mg/kg/injection, schedule: Q01DX015 (ip), vehicle: other 105 % of control

Nc1ccc(OC(=O)Oc2ccc(N)cc2)cc1
inactive: endpoint: survival time, mean or median, dose: 25.0 mg/kg/injection, schedule: Q01DX015 (ip), vehicle: saline 105 % of control | endpoint: survival time, mean or median, dose: 50.0 mg/kg/injection, schedule: Q01DX015 (ip), vehicle: saline 91 % of control | endpoint: survival time, mean or median, dose: 100.0 mg/kg/injection, schedule: Q01DX015 (ip), vehicle: saline 111 % of control | endpoint: survival time, mean or median, dose: 200.0 mg/kg/injection, schedule: Q01DX015 (ip), vehicle: saline 106 % of control

O=C(O)CC(NC(=O)CP(=O)(O)O)C(=O)O (stereo unspecified)
inactive: endpoint: median survival time, dose: 62.2 mg/kg/injection, schedule: Q04DX003 (ip), vehicle: saline 101 % of control | endpoint: median survival time, dose: 104.0 mg/kg/injection, schedule: Q04DX003 (ip), vehicle: saline 114 % of control | endpoint: median survival time, dose: 173.0 mg/kg/injection, schedule: Q04DX003 (ip), vehicle: saline 103 % of control | endpoint: median survival time, dose: 288.0 mg/kg/injection, schedule: Q04DX003 (ip), vehicle: saline 108 % of control | endpoint: median survival time, dose: 480.0 mg/kg/injection, schedule: Q04DX003 (ip), vehicle: saline 111 % of control

CCCCNc1ncnc2c1cnn2C
inactive: endpoint: survival time, mean or median, dose: 31.3 mg/kg/injection, schedule: Q01DX010 (ip), vehicle: saline 87 % of control and 95 % of control and 100 % of control | [1] 86 % of control and 97 % of control and 100 % of control | [2] 90 % of control

O=c1cnn(C2OC(CO)C(O)C2O)c(=O)[nH]1 (stereo unspecified)
inactive: endpoint: survival time, mean or median, dose: 200.0 mg/kg/injection, schedule: Q01DX008 (ip), vehicle: saline 115 % of control | endpoint: survival time, mean or median, dose: 800.0 mg/kg/injection, schedule: Q01DX008 (ip), vehicle: saline 96 % of control

OCC1OC(n2cnc3c(Cl)ncnc32)C(O)C1O (stereo unspecified)
inactive: [1] 90 % of control and 105 % of control | [2] 95 % of control and 100 % of control and 105 % of control | endpoint: survival time, mean or median, dose: 250.0 mg/kg/injection, schedule: Q01DX010 (ip), vehicle: saline 90 % of control and 95 % of control and 105 % of control | endpoint: survival time, mean or median, dose: 500.0 mg/kg/injection, schedule: Q01DX010 (ip), vehicle: saline 97 % of control and 104 % of control and 115 % of control
